Laboratory results reported in BindingDB's records for patent US11339122 (University of Pittsburgh, 2022).

Biological target: Transient receptor potential cation channel subfamily V member 1 (Homo sapiens, UniProt Q8NER1)
Test: RTX Competition Binding Assay.
Experimental: Binding studies with [3H]RTX were carried out as follows. The binding assay mixtures were prepared in 1.5 ml centrifuge tubes and consisted of a fixed concentration (approximately 2 nM) of [3H]RTX (37 Ci/mmol specific activity, PerkinElmer Life Sciences), various concentrations of competing ligands, and […] of membranes from induced CHO-hTRPV1 expressing cells (approximately 1-3×10^6 cells) in Dulbecco's phosphate buffered saline (DPBS, with Ca2+ & Mg2+) for a total volume of 350 μl. The assay mix contained bovine serum albumin at a final concentration of 0.25 mg/ml (Cohn fraction V; Sigma-Aldrich, St. Louis, Mo.). In each set of experiments, nonspecific binding were determined in the presence of 200 nM non-radioactive RTX. The binding reaction was initiated by placing the assay mixture in a 37° C. shaking water bath for 60 minutes ([…]). The assay mixture was then chilled on ice for 2-3 min before adding 100 μl of α1-acid glycoprotein (2 mg/ml; Sigma-Aldrich) and mixed thoroughly. The tubes were kept on ice for an additional 10 min. The bound and free ligands were then separated by centrifugation (12,200 rpm for 15 minutes) in a Beckman Coulter centrifuge Allegra 21R. 200 μl of supernatant was collected for determination of free ligand. The remainder was removed by aspiration.

Sequence of Transient receptor potential cation channel subfamily V member 1 (Q8NER1 whole entry): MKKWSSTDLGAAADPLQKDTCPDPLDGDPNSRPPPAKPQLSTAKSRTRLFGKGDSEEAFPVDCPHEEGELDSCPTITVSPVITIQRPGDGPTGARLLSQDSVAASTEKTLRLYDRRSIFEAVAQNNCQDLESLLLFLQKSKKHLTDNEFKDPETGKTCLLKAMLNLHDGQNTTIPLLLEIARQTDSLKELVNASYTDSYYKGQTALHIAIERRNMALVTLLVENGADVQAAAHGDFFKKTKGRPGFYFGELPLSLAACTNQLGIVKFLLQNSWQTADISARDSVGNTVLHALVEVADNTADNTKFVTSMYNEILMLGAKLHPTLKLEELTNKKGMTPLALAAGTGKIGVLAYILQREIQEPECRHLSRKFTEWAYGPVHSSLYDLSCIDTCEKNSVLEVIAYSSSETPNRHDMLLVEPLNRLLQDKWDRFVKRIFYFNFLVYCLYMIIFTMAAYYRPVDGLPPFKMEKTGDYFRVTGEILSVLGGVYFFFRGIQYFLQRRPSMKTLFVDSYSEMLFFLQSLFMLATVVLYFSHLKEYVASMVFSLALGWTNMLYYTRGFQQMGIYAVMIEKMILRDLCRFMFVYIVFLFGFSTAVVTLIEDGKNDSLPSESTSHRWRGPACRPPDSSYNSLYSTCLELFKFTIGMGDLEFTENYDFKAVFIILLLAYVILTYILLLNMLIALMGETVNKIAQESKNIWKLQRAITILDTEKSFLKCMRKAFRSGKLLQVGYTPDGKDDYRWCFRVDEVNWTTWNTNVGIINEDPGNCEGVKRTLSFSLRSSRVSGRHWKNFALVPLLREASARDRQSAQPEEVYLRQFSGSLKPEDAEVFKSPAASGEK

CCOC(=O)c1ccc(NC(=O)Nc2ccc(F)cc2)cc1 [US11339122, Compound 5b]
Ki: 2.84 µM
